# Measurements from patent US20250292865A1, “DETERMINING BIOLOGICAL PARAMETERS OF A CELL” (THE UNIVERSITY OF BATH, priority 2022, published 2025).
# Columns and labels:
# HCN1 = molecular target: T1, HCN1 (Homo sapiens, UniProt O60741); details: 50 μM; HCN1 selectively expressed in HEK293 cells; cited from earlier work
# T1 sequence (O60741 1-890): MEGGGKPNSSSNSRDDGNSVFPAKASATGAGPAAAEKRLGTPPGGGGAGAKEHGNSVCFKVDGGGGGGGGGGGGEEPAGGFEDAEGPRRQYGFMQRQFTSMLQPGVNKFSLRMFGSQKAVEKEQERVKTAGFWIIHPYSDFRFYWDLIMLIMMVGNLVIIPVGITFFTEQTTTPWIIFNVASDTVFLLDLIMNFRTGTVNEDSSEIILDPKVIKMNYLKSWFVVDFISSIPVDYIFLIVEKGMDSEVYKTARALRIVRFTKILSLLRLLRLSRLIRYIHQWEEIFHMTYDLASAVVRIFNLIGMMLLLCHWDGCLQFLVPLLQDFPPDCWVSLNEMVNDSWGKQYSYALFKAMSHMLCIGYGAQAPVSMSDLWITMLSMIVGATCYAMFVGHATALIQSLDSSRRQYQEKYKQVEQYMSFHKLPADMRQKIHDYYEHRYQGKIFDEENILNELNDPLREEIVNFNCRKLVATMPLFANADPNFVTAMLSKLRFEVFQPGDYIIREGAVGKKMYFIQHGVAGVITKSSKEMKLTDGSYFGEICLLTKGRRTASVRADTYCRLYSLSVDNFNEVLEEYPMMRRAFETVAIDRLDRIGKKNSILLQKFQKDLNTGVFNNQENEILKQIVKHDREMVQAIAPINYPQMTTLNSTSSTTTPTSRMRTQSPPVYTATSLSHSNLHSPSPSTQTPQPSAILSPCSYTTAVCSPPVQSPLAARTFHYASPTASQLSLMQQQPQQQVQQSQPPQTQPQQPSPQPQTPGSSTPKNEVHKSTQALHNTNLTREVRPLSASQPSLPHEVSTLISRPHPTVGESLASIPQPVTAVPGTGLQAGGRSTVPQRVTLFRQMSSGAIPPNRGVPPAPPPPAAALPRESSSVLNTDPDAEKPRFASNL
# HCN2 = molecular target: T2, HCN2 (Homo sapiens, UniProt Q9UL51); details: 50 μM; HCN2 selectively expressed in xenopus oocytes; cited from earlier work
# T2 sequence (Q9UL51 1-889): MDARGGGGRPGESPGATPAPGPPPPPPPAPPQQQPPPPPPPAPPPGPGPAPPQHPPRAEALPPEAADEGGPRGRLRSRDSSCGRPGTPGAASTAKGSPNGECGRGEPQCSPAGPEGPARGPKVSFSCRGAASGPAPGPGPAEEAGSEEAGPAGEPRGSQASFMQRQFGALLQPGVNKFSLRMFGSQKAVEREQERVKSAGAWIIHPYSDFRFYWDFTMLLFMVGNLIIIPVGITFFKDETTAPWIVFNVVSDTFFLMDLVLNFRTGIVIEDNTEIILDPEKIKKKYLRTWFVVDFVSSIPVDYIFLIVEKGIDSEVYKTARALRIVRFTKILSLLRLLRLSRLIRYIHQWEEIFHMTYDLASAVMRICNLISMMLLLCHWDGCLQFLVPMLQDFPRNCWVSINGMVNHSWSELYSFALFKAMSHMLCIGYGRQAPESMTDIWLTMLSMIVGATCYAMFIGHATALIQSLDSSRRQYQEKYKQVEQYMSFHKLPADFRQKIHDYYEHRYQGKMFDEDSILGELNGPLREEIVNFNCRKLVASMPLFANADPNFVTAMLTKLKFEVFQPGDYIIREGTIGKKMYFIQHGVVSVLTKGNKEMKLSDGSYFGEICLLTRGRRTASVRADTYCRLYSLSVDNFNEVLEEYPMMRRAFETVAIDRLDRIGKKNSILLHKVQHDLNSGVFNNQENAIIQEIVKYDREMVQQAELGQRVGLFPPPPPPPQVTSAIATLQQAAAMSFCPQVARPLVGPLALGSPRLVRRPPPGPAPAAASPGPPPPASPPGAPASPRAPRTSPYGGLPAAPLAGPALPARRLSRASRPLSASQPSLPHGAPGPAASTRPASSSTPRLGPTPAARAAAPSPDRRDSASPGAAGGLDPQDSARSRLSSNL
# A-type K+ ion channel = test: Data assimilation of CA1 neuron current clamp recordings: predicted charge through A-type K+ channel before and after drug; type: cell-based, rodent
# A-type [Kv1.4] = A-type [Kv1.4] (Homo sapiens, UniProt P22459); details: 300 μM; A-type [Kv1.4] selectively expressed in xenopus oocytes; cited from earlier work
# Sequence of A-type [Kv1.4] (P22459 whole entry): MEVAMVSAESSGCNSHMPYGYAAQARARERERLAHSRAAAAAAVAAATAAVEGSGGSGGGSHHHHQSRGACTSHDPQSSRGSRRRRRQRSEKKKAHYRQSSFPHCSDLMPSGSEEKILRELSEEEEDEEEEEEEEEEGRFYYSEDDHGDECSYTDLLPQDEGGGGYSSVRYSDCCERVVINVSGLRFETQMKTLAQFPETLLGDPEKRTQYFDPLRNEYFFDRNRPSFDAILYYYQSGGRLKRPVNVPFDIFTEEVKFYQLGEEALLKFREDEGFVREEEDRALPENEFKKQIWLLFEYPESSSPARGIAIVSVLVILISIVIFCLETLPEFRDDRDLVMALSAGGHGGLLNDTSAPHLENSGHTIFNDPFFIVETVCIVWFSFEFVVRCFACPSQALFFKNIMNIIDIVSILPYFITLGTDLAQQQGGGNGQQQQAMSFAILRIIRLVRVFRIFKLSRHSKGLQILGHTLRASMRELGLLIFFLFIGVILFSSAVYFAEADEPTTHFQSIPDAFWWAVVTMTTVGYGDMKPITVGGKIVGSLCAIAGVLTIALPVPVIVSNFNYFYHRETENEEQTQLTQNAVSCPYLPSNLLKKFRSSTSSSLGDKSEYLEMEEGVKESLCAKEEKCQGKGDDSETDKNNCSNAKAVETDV
# A-type [Kv4.2] = molecular target: T3, A-type [Kv4.2] (Homo sapiens, UniProt Q9NZV8); details: 300 μM; A-type [Kv4.2] selectively expressed in xenopus oocytes; cited from earlier work
# T3 sequence (Q9NZV8 1-630): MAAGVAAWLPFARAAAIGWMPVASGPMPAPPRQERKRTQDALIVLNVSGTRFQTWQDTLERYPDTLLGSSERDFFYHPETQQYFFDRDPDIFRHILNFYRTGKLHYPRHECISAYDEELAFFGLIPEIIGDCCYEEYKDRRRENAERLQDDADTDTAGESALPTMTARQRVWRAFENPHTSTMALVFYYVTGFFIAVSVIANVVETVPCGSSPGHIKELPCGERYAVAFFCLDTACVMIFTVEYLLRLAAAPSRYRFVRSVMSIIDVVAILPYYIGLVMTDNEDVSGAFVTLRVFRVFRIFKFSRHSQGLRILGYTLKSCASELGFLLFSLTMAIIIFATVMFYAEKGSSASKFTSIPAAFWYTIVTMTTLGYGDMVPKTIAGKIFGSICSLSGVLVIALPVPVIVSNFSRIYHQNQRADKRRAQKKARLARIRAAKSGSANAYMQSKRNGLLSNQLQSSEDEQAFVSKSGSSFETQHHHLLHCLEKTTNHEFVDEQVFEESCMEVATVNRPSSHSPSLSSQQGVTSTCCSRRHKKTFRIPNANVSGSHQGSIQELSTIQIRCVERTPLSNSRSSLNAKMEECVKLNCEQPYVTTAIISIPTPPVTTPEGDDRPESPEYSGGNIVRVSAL
# BK ion channel = molecular target: T4, BK ion channel (Homo sapiens, UniProt Q12791); test: Data assimilation of CA1 neuron current clamp recordings: predicted charge through BK channel before and after drug; type: cell-based, rodent
# T4 construct: endogenous in cells; host or cells: hippocampal CA1 neuron
# T4 sequence (Q12791 whole entry): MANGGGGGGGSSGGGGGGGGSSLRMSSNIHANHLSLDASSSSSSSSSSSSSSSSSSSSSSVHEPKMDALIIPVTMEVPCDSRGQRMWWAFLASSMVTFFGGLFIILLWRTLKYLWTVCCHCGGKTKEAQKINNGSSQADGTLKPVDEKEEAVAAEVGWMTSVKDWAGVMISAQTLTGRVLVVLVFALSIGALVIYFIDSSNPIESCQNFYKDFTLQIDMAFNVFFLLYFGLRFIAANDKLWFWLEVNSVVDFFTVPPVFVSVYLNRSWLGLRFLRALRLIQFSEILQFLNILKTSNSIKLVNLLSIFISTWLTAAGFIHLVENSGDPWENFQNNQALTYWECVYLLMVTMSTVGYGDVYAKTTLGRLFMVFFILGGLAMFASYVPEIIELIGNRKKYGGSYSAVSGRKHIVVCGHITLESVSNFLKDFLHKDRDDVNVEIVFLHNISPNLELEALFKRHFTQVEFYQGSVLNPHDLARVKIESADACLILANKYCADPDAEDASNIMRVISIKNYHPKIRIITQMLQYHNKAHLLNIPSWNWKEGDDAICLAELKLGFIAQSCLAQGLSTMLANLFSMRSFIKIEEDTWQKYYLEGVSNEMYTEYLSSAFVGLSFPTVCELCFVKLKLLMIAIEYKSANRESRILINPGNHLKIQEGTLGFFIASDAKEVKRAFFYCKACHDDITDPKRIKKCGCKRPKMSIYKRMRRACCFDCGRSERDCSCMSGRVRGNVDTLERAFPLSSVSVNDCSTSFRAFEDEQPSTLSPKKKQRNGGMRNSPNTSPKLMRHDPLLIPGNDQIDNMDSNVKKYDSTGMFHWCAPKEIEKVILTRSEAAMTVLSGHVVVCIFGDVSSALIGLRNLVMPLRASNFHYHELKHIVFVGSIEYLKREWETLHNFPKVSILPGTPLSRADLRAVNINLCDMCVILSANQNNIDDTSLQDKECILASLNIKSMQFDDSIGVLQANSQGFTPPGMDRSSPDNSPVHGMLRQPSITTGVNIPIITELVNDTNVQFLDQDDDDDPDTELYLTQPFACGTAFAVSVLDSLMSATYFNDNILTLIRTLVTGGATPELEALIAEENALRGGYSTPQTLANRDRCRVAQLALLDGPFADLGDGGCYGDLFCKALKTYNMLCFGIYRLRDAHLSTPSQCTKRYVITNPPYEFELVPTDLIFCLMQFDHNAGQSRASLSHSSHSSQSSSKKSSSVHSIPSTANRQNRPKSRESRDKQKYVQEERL
# SK ion channel = test: Data assimilation of CA1 neuron current clamp recordings: predicted charge through SK channel before and after drug; type: cell-based, rodent; details: 100 nM IbTX, 2000 ms prediction window, FIG. 12A
# NaT ion channel = test: Data assimilation of CA1 neuron current clamp recordings: predicted charge through NaT channel before and after drug; type: cell-based, rodent; details: 100 nM IbTX, 2000 ms prediction window, FIG. 12A
# K ion channel = test: Data assimilation of CA1 neuron current clamp recordings: predicted charge through K channel before and after drug; type: cell-based, rodent; details: 100 nM IbTX, 2000 ms prediction window, FIG. 12A
# BK [α subunit only] = BK [α subunit only] (Homo sapiens, UniProt Q12791); details: 100 nM; BK [α subunit only] selectively expressed in HEK293 cells; cited from earlier work
# Sequence of BK [α subunit only] (Q12791 whole entry): as above
# BK [α + β1] = BK [α + β1] (Homo sapiens, UniProt Q12791); details: 100 nM; BK [α + β1] selectively expressed in HEK293 cells; cited from earlier work
# Sequence of BK [α + β1] (Q12791 whole entry): as above
# Sequence of BK [α + β1] (Q16558 whole entry partner): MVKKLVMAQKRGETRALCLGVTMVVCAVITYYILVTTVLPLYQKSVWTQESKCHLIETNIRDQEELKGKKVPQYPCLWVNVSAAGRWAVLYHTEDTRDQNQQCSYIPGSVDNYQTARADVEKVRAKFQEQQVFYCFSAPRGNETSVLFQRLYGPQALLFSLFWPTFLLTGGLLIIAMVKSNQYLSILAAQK
# BK [α + β3] = BK [α + β3] (Homo sapiens, UniProt Q12791); details: 100 nM; BK [α + β3] selectively expressed in HEK293 cells; cited from earlier work
# Sequence of BK [α + β3] (Q12791 whole entry): as the sequence (Q12791 whole entry) above
# Sequence of BK [α + β3] (Q9NPA1 whole entry partner): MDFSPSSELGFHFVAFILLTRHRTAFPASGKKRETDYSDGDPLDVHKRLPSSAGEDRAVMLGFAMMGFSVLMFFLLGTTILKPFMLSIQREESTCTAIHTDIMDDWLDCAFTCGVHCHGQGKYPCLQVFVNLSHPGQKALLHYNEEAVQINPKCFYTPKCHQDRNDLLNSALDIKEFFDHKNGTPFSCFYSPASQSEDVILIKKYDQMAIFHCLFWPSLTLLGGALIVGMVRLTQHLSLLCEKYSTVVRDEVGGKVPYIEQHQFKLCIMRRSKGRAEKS
# BK [α + β4] = BK [α + β4] (Homo sapiens, UniProt Q12791); details: 100 nM; BK [α + β4] selectively expressed in HEK293 cells; cited from earlier work
# Sequence of BK [α + β4] (Q12791 whole entry): as the sequence (Q12791 whole entry) above
# Sequence of BK [α + β4] (Q86W47 whole entry partner): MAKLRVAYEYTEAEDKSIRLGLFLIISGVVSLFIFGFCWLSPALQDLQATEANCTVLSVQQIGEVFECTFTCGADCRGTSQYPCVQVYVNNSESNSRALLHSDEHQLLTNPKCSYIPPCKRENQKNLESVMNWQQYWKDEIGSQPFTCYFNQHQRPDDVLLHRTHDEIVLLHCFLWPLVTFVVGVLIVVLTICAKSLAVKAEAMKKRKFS
compound,measurement,setting,value
CCN(c1ccccc1)c1cc(=NC)n(C)c(C)n1.Cl [ZD 7288],EXPECTED DEGREE OF BLOCK AT APPLIED CONCENTRATION,HCN1,~63%
same,EXPECTED DEGREE OF BLOCK AT APPLIED CONCENTRATION,HCN2,~80%
"Nc1ccncc1 [4-AP, 4-aminopyridine]",MEAN PREDICTED INHIBITION (Results),"A-type K+ ion channel; 300 μM applied, A-type K+ current, CA1 neuron, mean",19.0%
same,MEDIAN PREDICTED INHIBITION (Results),"A-type K+ ion channel; 300 μM applied, A-type K+ current, CA1 neuron, median",24.3%
same,EXPECTED DEGREE OF BLOCK AT APPLIED CONCENTRATION,A-type [Kv1.4],~25%
same,EXPECTED DEGREE OF BLOCK AT APPLIED CONCENTRATION,A-type [Kv4.2],~13%
"Iberiotoxin (QFTDVDCSVSKECWSVCKDLFGVDRGKCMGKKCRCYQ; UniProt P24663 1-37, looked up)","Effect on total predicted charge (spike normalised), pre- vs post-drug","BK ion channel; 100 nM IbTX, BK ion channel, 2000 ms prediction window, FIG. 12A, 12D",does have a noticeable effect
same,MEAN PREDICTED INHIBITION (Results),"BK ion channel; 100 nM applied, BK current, CA1 neuron, mean",14.8%
same,MEDIAN PREDICTED INHIBITION (Results),"BK ion channel; 100 nM applied, BK current, CA1 neuron, median",12.1%
same,"Effect on total predicted charge (spike normalised), pre- vs post-drug",SK ion channel,does not have a visible effect
same,"Effect on total predicted charge (spike normalised), pre- vs post-drug","A-type K+ ion channel; 100 nM IbTX, A-type K+ ion channel, 2000 ms prediction window, FIG. 12A",does not have a visible effect
same,"Effect on total predicted charge (spike normalised), pre- vs post-drug",NaT ion channel,does not have a visible effect
same,"Effect on total predicted charge (spike normalised), pre- vs post-drug",K ion channel,does not have a visible effect
same,EXPECTED DEGREE OF BLOCK AT APPLIED CONCENTRATION,BK [α subunit only],86%
same,EXPECTED DEGREE OF BLOCK AT APPLIED CONCENTRATION,BK [α + β1],12%
same,EXPECTED DEGREE OF BLOCK AT APPLIED CONCENTRATION,BK [α + β3],77%
same,EXPECTED DEGREE OF BLOCK AT APPLIED CONCENTRATION,BK [α + β4],Insensitive
